Data on two molecules can be found in patent US10947598B2, “Methods for determining the metabolic status of lymphomas” (INSERM (Institut National de la Sante et de la Recherche …, priority 2015, dated 2021).

Assay [1] deals with Eμ-Myc cells (mouse primary B lymphoma cells), gapdh^low vs gapdh^high. Briefly: Proliferation assay (proliferation index, DAPI exclusion). The note with it: phenformin 50 μM, 24 and 48 hours. The class given is cell-based. The method, then:
Mouse primary Eμ-Myc clones (B lymphoma cells) obtained from lymphomas of different C57BL/6 Eμ-Myc transgenic mice were isolated as described previously (Lindemann et al., 2007) and maintained in DMEM supplemented with 10% FCS, 2-mercaptoethanol (50 μM), L-asparagin (0.37 mM) and HEPES (pH 7.4, 10 mM). C57BL/6 Eμ-Myc transgenic mice were purchased from the Jackson Laborator.
Eμ-Myc cells (0.2×10^6) were seeded in 96 well-plates in the presence or absence of 50 μM of Phenformin for 0, 24 and 48 hours. Number of living and dead cells was counted using DAPI staining exclusion by flow cytometry (MACSQuant Analyser, Miltenyi Biotec). Proliferation index were calculated by dividing the number of living cells obtained for each day by the one obtained the day of seeding (day 0).

For assay [2] the test system is unchanged. Briefly: Cell death assay (DAPI staining, flow cytometry). The class given is cell-based. As for the experimental part:
C57BL/6 Eμ-Myc transgenic mice were purchased from the Jackson Laborator.
Eμ-Myc cells (0.2×10^6) were seeded in 96 well-plates in the presence or absence of 200 μM of phenformin (Sigma) for 24 hours and 48 hours. Cells were then labeled with DAPI (Molecular Probes; 0.5 μg/mL) and analyzed immediately by flow cytometry using a MACSQuant Analyzer (Miltenyi Biotec).

Assay [3] concerns Eμ-Myc-gapdh^low lymphoma. Briefly: Animal study: lymphoma transfer of Eμ-Myc-gapdh^low cells into syngeneic C57BL/6 mice. The class given is in vivo, mouse. Conditions: Eμ-Myc-gapdh^low-bearing mice; 200 mg/kg/day phenformin in drinking water for 12 days; FIG. 5. The method, then: Lymphoma transfer of a isolated Eμ-Myc clone was realized into syngeneic, nontransgenic, 6-week-old C57BL/6 females by tail vein injection of 0.1×10^6 viable Eμ-Myc lymphoma cells per recipient mouse (in 150 μL of sterile PBS). Phenformin treated group received 200 mg/kg/day phenformin in the drinking water for 12 days. Phenformin powder was dissolved every two days in the drinking water, taking into account the mouse body weight and the volume of water consumed each day. Untreated mice (controls) received water (n=10 mice/group). Food was given ad libitum. The first signs of the pathology were determined by inguinal lymph node palpation and analyses of blood sample with Hemavet 950FS (Drew Scientific, INC, France). Progression-free survival was determined by the time between the iv injection of the cell and the appearance of enlarged lympho nodes. Lymphoma-bearing animals were killed by cervical dislocation as soon as they presented signs of illness. Upon sacrifice all lymph node tumors and spleen are immediately collected and weighted. All mice were maintained in specific pathogen-free conditions and experimental procedures were approved by the Institutional Animal Care and Use Committee and by the regional ethics committee (PEA232 from Comité Institutionnel d'Ethique Pour l'Animal de Laboratoire—AZUR).

Entries after “also recorded” stand apart in the source; their conditions may differ.

Take `[H]/N=C(/N)N/C(=N/[H])NCCc1ccccc1` [phenformin]: the “Sensitivity to phenformin (proliferation index)” value in assay [1] (Eμ-Myc-gapdh^high cells silenced for gapdh (shgapdh) vs control, FIG. 4B) is on record as “more sensitive”; in assay [1] (Eμ-Myc-gapdh^low vs Eμ-Myc-gapdh^high clones, FIG. 3B), “more sensitive”. The “Sensitivity to phenformin (cell death)” value in assay [2] (Eμ-Myc-gapdh^high cells silenced for gapdh (shgapdh) vs control, phenformin 100 μM, 24 and 48 hours, FIG. 4A) is “more sensitive; also recorded: sensitizes”; in assay [2] (Eμ-Myc-gapdh^low vs Eμ-Myc-gapdh^high clones, phenformin 200 μM, 24 hours, FIG. 3A) it was “more sensitive”. In addition, in assay [3], the “B lymphoma progression (progression-free survival, size of axillary lymphomas and spleen)” value was “reduced”.

As for L-asparaginase, the “Sensitivity to L-asparaginase (cell death)” value in assay [2] (Eμ-Myc-gapdh^high cells silenced for gapdh (shgapdh) vs control, L-asparaginase 0.3 UI/ml, 24 hours, FIG. 4C) is on record as “more sensitive; also recorded: sensitizes”; in assay [2] (Eμ-Myc-gapdh^low vs Eμ-Myc-gapdh^high clones, L-asp 0.3 UI/ml, 1.0 UI/ml, 24 hours, FIG. 3C), “more sensitive”.
